# Where a name gives a salt, the structure may show the parent alone.
# Tests used:
# [1] = system: blood pressure in conscious dogs; test: Hypotensive effects in conscious dogs before and after furosemide; type: in vivo, dog; conditions: cumulative iv 0.3 to 3 mg/kg
# Description: (§1) The hypotensive effects of 2-butyl-4-chloro-1-[2'-(1H-tetrazol-5-yl)biphenyl-4-yl)methyl]-5-hydroxymethylimidazole sodium salt were compared before and after furosemide administration to conscious dogs. […] Plasma renin activity (PRA) in these animals was 1.5±0.5 ng AI/ml/hr. Four days later, furosemide was given to three of these dogs at 10 mg/kg im at 18 and 2 hours before the experiment and increased PRA to 19.9±7.2 ng AI/ml/hr. […] Thus a combined therapy of these two classes of drugs will be likely to increase the response rate to therapy among hypertensive patients.
# pressor response to AII = test: Inhibition of the pressor response to AII in conscious dogs; type: in vivo, dog
# Description: as §1
# [2] = system: blood pressure in renal hypertensive rats; test: Antihypertensive effects in renal hypertensive rats (left renal artery ligation); type: in vivo, rat
# Description: This procedure increases blood pressure by increasing renin production with consequent elevation of AII levels. Compounds are administered orally at 100 mg/kg and/or intravenously via a cannula in the jugular vein at 10 mg/kg. Arterial blood pressure is continuously measured directly through a carotid artery cannula and recorded using a pressure transducer and a polygraph. Blood pressure levels after treatment are compared to pretreatment levels to determine the antihypertensive effects of the compounds (See Table 6).
# AT1 receptor = conditions: cited from earlier work
# [3] = Solubility studies in nonaqueous solvents at 25° C.; type: physicochemical; conditions: overnight equilibration; for solubility: organic solvent or mixture, isopropyl acetate
# [4] = type: physicochemical; conditions: 25° C., overnight equilibration
# Text: From these facts it was concluded that the minor endotherm corresponds to an enantiotropic polymorphic transition. The major endotherm is the melting of the high-temperature form. The low-temperature stable polymorph (up to the transition temperature) is designated Form I and the high-temperature stable polymorph is designated Form II. […] Form I is the solid modification consistently obtained by solvent isolation. This was confirmed by recrystallizing the drug substance under varying conditions and analyzing by XRPD. Form II has been obtained only from DSC or related high temperature experiments.
# [5] = system: renal vasoconstrictor effect of indomethacin; conditions: dogs with non-hypotensive hemorrhage; cited from earlier work
# AII = conditions: cited from earlier work
# arterial pressure = conditions: cited from earlier work
# [6] = system: renal vasoconstrictor effect of indomethacin and meclofenamate; conditions: dogs; cited from earlier work
# plasma renin = test: Plasma renin activity (PRA) in conscious dogs; type: in vivo, dog; conditions: furosemide 10 mg/kg im at 18 and 2 hours before the experiment, three dogs; PRA before furosemide 1.5±0.5
# Description: as §1
smiles,measurement,setting,value
CCCCc1nc(Cl)c(CO)n1Cc1ccc(-c2ccccc2-c2nn[nH]n2)cc1 [2-butyl-4-chloro-1-[2'-(1H-tetrazol-5-yl)biphenyl-4-yl)methyl]-5-hydroxymethylimidazole sodium salt],decrease in blood pressure after furosemide,[1]; furosemide-treated dogs,significant decrease in blood pressure in a dose-dependent manner
same,blood pressure lowering in normotensive conscious dogs,"[1]; n=4, before furosemide",did not lower blood pressure
same,inhibition of the pressor response to AII,"pressor response to AII; cumulative iv 0.3 to 3 mg/kg, AII 0.1 μg/kg iv, 10 min post dose, before furosemide",effective in inhibiting the pressor response to AII
same,inhibition of the pressor response to AII after furosemide,"pressor response to AII; cumulative iv, furosemide-treated dogs",inhibited the pressor response to AII at the two higher doses
"CCCCc1nc(Cl)c(CO)n1Cc1ccc(-c2ccccc2-c2nn[nH]n2)cc1 [Losartan, 2-butyl-4-chloro-1-[(2'-tetrazol-5-yl)-biphenyl-4-yl]methyl]-5-(hydroxymethyl)imidazole potassium salt]","Antihypertensive Effects in Renal Hypertensive Rats, Intravenous Activity","[2]; intravenous, 10 mg/kg",+ (Significant decrease in blood pressure at 10 mg/kg or less)
same,"Antihypertensive Effects in Renal Hypertensive Rats, Oral Activity","[2]; oral, 100 mg/kg",+ (Significant decrease in blood pressure at 100 mg/kg or less)
same,"AII antagonist activity, oral",AT1 receptor,orally active AII antagonists
"CCCCc1nc(Cl)c(CO)n1Cc1ccc(-c2ccccc2-c2nnn[nH]2)cc1.[K] [Form I, 2-n-butyl-4-chloro-1-[(2'-(tetrazol-5-yl)-1,1'-biphenyl-4-yl)-methyl]-1H-imidazole-5-methanol potassium salt]",solubility in ethyl acetate,[3]; ethyl acetate,~ 0.3 mg/g
same,solubility in isopropanol,[3]; isopropanol,~ 35 mg/g
same,solubility in methyl ethyl ketone,[3]; methyl ethyl ketone,~ 1 mg/g
same,solubility,[3],18 µg/mL
same,polymorph conversion in isopropyl acetate,[4],no conversion of either Form was observed
C[C@H](CS)C(=O)N1CCC[C@H]1C(=O)O [captopril],reversal of renal vasoconstrictor effect of indomethacin,[5],reverse the renal vasoconstrictor effect of indomethacin in dogs
"CNCC(=O)N[C@@H](CCCN=C(N)N)C(=O)N[C@H](C(=O)N[C@@H](Cc1ccc(O)cc1)C(=O)N[C@H](C(=O)N[C@@H](Cc1cnc[nH]1)C(=O)N1CCC[C@H]1C(=O)N[C@@H](C)C(=O)O)C(C)C)C(C)C [Saralasin, [Sar^1, Ala^8] AII]",block of effects of AII on the blood pressure,AII; pithed rats,blocks the effects of AII on the blood pressure of pithed rats
same,competitive antagonism of the actions of AII,"AII; rat, in vivo",one of the most potent competitive antagonists of the actions of AII
same,oral effectiveness,arterial pressure; oral doses,oral doses being ineffective
same,duration of pharmacological effects,arterial pressure; parenteral administration,relatively short-lasting
same,lowering of arterial pressure,arterial pressure; when the (elevated) pressure is dependent on circulating AII,lower arterial pressure in mammals and man
same,pressor effects (agonistic character),arterial pressure; when the pressure is not sustained by AII,generally elicits pressor effects when the pressure is not sustained by AII
same,inhibition of renal vasoconstrictor effect of indomethacin and meclofenamate,[6],inhibit the renal vasoconstrictor effect of indomethacin and meclofenamate in dogs
NS(=O)(=O)c1cc(C(=O)O)c(NCc2ccco2)cc1Cl [furosemide],plasma renin activity (PRA) after furosemide,plasma renin,19.9±7.2 ng AI/ml/hr
"CCCCc1nc(Cl)c(CO)n1Cc1ccc(-c2ccccc2-c2nn[nH]n2)cc1 [Form II, 2-n-butyl-4-chloro-1-[(2'-(tetrazol-5-yl)-1,1'-biphenyl]-1H-imidazole-5-methanolpotassium salt]",solubility,[3],41 µg/mL
same,"polymorph conversion in isopropanol, methyl ethyl ketone and ethyl acetate",[4],converts to Form I after overnight equilibration
same,polymorph conversion in isopropyl acetate,[4],no conversion of either Form was observed
